Like-named read-outs stand apart in the source and are kept apart here.
How the values were obtained:
GlyRA1 = target: T1, GlyRA1 (Homo sapiens, UniProt P23415); type: cell-based
T1 construct: purchased Cerep (Eurofins), Poitiers, France; Promega P450-Glo; in-house COS-7 uptake assays
T1 sequence (P23415 29-457): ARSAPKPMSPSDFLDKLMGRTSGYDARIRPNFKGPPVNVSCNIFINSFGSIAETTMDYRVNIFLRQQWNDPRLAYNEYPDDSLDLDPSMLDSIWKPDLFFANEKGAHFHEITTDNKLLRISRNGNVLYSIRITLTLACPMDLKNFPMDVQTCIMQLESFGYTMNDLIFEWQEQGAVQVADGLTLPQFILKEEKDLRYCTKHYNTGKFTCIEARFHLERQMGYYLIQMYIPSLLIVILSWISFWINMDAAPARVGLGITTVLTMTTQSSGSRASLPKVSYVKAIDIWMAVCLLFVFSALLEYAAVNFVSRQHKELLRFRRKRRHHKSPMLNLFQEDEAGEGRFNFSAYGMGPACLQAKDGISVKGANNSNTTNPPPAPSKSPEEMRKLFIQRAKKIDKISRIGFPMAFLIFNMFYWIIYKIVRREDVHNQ

[1] = system: motor coordination of mice; conditions: mouse, in vivo, ip; cited from earlier work
[2] = system: maximal electroshock seizures in mice; conditions: mouse, in vivo; cited from earlier work
[3] = system: 6 Hz (32 mA) seizures in mice; conditions: mouse, in vivo; cited from earlier work
hCav3.2 = hCav3.2 (Homo sapiens, UniProt O95180); assay: cell-based
Sequence of hCav3.2 (O95180 whole entry): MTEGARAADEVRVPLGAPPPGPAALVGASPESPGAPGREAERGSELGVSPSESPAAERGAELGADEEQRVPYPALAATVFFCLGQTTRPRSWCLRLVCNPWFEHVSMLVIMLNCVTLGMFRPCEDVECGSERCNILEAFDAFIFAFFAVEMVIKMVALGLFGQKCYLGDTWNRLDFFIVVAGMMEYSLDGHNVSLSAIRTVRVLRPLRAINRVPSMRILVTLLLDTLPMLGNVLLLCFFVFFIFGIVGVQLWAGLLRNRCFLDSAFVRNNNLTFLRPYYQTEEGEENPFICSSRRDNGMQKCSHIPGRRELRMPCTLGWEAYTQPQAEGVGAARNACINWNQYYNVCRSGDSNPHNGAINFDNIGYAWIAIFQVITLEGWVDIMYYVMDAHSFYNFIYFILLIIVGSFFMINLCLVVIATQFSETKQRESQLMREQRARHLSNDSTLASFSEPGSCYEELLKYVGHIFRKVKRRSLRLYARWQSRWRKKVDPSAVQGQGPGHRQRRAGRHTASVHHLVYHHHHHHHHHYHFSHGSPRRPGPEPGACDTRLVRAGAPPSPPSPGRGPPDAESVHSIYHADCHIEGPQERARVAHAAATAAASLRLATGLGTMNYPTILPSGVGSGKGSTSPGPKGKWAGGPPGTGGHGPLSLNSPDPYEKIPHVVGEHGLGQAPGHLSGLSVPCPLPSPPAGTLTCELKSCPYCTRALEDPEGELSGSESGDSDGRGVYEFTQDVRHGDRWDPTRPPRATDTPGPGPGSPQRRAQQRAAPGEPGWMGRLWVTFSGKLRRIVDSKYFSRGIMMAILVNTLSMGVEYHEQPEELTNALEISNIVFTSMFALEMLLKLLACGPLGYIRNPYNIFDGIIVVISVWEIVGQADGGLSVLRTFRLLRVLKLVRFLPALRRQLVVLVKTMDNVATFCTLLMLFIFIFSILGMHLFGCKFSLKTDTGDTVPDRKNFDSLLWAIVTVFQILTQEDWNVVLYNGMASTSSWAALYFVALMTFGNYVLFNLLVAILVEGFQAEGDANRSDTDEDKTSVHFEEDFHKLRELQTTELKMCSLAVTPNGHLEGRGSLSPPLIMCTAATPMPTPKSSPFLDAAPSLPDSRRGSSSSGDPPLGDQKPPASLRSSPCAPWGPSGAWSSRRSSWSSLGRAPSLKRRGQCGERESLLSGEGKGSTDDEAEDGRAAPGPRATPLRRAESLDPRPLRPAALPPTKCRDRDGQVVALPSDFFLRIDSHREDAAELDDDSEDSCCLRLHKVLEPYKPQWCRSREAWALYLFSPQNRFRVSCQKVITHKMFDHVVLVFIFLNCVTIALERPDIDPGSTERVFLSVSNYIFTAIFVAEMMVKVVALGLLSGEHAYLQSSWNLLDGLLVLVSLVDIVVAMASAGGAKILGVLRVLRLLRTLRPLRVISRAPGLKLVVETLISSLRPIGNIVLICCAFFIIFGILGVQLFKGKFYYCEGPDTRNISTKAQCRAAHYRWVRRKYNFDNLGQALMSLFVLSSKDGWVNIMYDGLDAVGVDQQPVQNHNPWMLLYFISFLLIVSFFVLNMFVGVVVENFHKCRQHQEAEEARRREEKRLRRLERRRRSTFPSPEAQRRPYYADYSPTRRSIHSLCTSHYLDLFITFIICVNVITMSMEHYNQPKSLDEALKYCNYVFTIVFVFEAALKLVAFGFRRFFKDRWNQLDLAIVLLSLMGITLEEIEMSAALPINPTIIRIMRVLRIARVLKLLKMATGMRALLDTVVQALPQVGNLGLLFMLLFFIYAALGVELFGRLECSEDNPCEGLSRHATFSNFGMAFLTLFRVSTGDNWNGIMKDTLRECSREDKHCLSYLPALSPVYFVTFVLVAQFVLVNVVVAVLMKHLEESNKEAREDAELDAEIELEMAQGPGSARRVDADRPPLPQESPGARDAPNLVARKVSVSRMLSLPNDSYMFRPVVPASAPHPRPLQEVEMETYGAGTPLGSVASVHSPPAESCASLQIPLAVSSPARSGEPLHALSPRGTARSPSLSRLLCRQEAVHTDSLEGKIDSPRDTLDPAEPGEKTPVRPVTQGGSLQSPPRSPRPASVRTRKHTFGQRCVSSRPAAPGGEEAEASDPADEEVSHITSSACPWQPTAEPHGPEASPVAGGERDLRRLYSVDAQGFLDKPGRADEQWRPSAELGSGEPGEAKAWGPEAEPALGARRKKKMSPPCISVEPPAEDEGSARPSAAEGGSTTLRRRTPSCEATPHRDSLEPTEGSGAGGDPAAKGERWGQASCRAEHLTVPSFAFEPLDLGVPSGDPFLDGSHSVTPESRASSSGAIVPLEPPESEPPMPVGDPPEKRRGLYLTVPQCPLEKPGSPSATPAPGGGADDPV

[4] = system: PTZ-induced kindling in mice; conditions: VPA 150 mg/kg i.p. (positive control)
[5] = system: PTZ-induced seizures in mice; conditions: mouse, in vivo; cited from earlier work

In the case of `NCC(=O)O` [Glycine, reference compound], the “GlyRA1 agonist, % Control, Mean” value (GlyRA1) is reported as 89.99%, the “GlyRA1 agonist, % Control, n1” value (GlyRA1) is reported as 92.59% and the “GlyRA1 agonist, % Control, n2” value (GlyRA1) is reported as 87.38%.
For `CC(C(=O)NCc1ccccc1F)N1C(=O)CCC1=O` (stereo not shown) [II], the “TD50 (rotarod)” value [1] is given as 300.9 (256.7–352.6) mg/kg.
In the case of `COC[C@@H](NC(C)=O)C(=O)NCc1ccccc1` [LCS, lacosamide], the “ED50 (MES)” value [2] is listed as 9.2 (8.5–10.0) mg/kg and the “ED50 (6 Hz 32 mA)” value [3] is listed as 5.3 (3.5–7.8) mg/kg.
For `CC[C@@H](C(N)=O)N1CCCC1=O` [LEV, levetiracetam], the “ED50 (MES)” value [2] is given as greater than 500 mg/kg.
Work on `COCC(=O)O[C@]1(CCN(C)CCCc2nc3ccccc3[nH]2)CCc2cc(F)ccc2[C@@H]1C(C)C` [Mibefradil, reference compound] yielded an inhibition at 30 µM (hCav3.2; read-out: hCav3.2 % Inhibition, Mean) of 95.5%, an inhibition at 30 µM (hCav3.2; read-out: hCav3.2 % Inhibition, n1) of 96.1% and an inhibition at 30 µM (hCav3.2; read-out: hCav3.2 % Inhibition, n2) of 94.8%.
For `CCCC(CCC)C(=O)O` [VPA, valproic acid], the “effect on kindling development” value [4] is listed as “suppressed kindling development”, the “ED50 (6 Hz 32 mA)” value [3] is listed as 130.6 (117.6–145.2) mg/kg and the “ED50 (scPTZ)” value [5] is listed as 239.4 (209.2–274.1) mg/kg.

Source: publication PMC9469208 (Journal of Medicinal Chemistry, 2022)
